Source: US8865756B2, “Inhibitors of HCV NS5A” (Presidio Pharmaceuticals, Inc., priority 2008, dated 2014)

The molecules below were run on HCV 1b_Huh-Luc/Neo-ET cell line persistently expressing a bicistronic genotype 1b replicon in Huh 7 cells (assay: HCV replicon assay (luciferase readout)). Details: Hepatitis C virus, Huh-7, 72 h, read-out: Inhibition of HCV genotype 1b.
Assay type: cell-based
Summary of the method: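 EC50, determined repeatedly, comes from a four-parameter logistic fit of luciferase signal as percent of untreated control. Readout follows 72 h compound exposure, in triplicate, of the HCV 1b_Huh-Luc/Neo-ET replicon line.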
`COC(=O)N[C@@H](C(=O)N1CCC[C@H]1c1cc(-c2ccc(C#Cc3ccc(-c4cnc([C@@H]5CCCN5C(=O)[C@H](NC(=O)OC)c5ccccc5)[nH]4)cc3)cc2)n[nH]1)c1ccccc1` [Compound 219] was tested, and the EC50 was < 1 nM. For `COC(=O)N[C@@H](C(=O)N1CCC[C@H]1c1ncc(-c2ccc(C#Cc3ccc(C(=O)NC[C@@H]4CCCN4C(=O)[C@H](NC(=O)N4CCN(C)CC4)c4ccccc4)cc3)cc2)[nH]1)c1ccccc1` [Compound 236], the EC50 was < 1 nM. `COC(=O)N[C@H](C(=O)N1CCC[C@H]1c1nc2ccc(-c3ccc(C#Cc4cnc([C@@H]5CCCN5C(=O)[C@H](NC(=O)OC)c5ccccc5)[nH]4)cc3)cc2[nH]1)C(C)C` [Compound 1085] was tested, and the EC50 was < 1 nM. `COC(=O)N[C@H](C(=O)N1CC[C@H](O)[C@H]1c1ncc(-c2ccc(C#Cc3ccc4nc([C@@H]5CCCN5C(=O)[C@@H](NC(=O)OC)C(C)C)[nH]c4c3)cc2)[nH]1)C(C)C` [Compound 1068] was tested, and the EC50 was < 1 nM. With `COC(=O)N[C@@H](C(=O)N1CCC[C@H]1c1ncc(C#Cc2ccc(C#Cc3cnc([C@@H]4CCCN4C(=O)[C@H](NC(=O)OC)c4ccccc4)[nH]3)cc2)[nH]1)c1ccccc1` [Compound 304] the EC50 was < 1 nM. With `COC(=O)N[C@H](C(=O)N1CCC[C@H]1c1nc2ccc(C#Cc3ccc(-c4cnc([C@@H]5CCCN5C(=O)[C@H](C(C)C)N(C)C)[nH]4)cc3)cc2[nH]1)C(C)C` [Compound 866] the EC50 was < 1 nM. For `COC(=O)N[C@H](C(=O)N[C@@H](C)c1ncc(-c2ccc(C#Cc3ccc4nc([C@@H]5CCCN5C(=O)[C@@H](NC(=O)OC)C(C)C)[nH]c4c3)cc2)[nH]1)C(C)C` [Compound 869], the EC50 was < 1 nM. Work on `COC(=O)NC(C)(C)C(=O)N1CCC[C@H]1c1ncc(-c2ccc(C#Cc3ccc4nc([C@@H]5CCCN5C(=O)C(C)(C)NC(=O)OC)[nH]c4c3)cc2)[nH]1` [Compound 1050] yielded an EC50 of 10 to 999 nM. With `COC(=O)N[C@H](C(=O)N1CCC[C@H]1c1nc2ccc3cc(C#Cc4ccc(-c5cnc([C@@H]6CCCN6C(=O)[C@@H](NC(=O)OC)C6CCOCC6)[nH]5)cc4)ccc3c2[nH]1)C(C)C` [Compound 1092] the EC50 was < 1 nM. With `COC(=O)N[C@@H](C(=O)N1CCC[C@H]1c1ncc(-c2ccc(C#Cc3ccc(-c4cnc([C@@H]5CCCN5C(=O)[C@H](NC(=O)[C@@H]5CCCO5)c5ccccc5)[nH]4)cc3)cc2)[nH]1)c1ccccc1` [Compound 195] the EC50 was < 1 nM. `COC(=O)N[C@H](C(=O)N[C@@H](C)c1ncc(-c2ccc(C#Cc3ccc(-c4cnc([C@H](C)NC(=O)[C@@H](NC(=O)OC)[C@@H](C)O)[nH]4)cc3)cc2)[nH]1)[C@@H](C)O` [Compound 969] was tested, and the EC50 was < 1 nM. For `COC(=O)N[C@H](C(=O)N1CCC[C@H]1c1nc2c([nH]1)-c1ccc(C#Cc3ccc(-c4cnc([C@@H]5CCCN5C(=O)[C@H](NC(=O)OC)c5ccccc5)[nH]4)cc3F)cc1CC2)C(C)C` [Compound 1098], the EC50 was < 1 nM. `COC(=O)N[C@H](C(=O)N[C@@H](C)c1ncc(-c2ccc(C#Cc3ccc4nc([C@H](C)NC(=O)[C@@H](NC(=O)OC)C(C)C)[nH]c4c3)cc2)[nH]1)C(C)C` [Compound 868] was tested, and the EC50 was < 1 nM.
